From patent US10471060B2, “Amino pyrimidine compounds useful as SSAO inhibitors” (Eli Lilly and Company, priority 2017, dated 2019)

How the values were obtained:
SSAO = SSAO Target Engagement: residual SSAO activity in rat plasma and liver after dosing; type: in vivo; conditions: for SSAO Activity (%) Liver 24 hours / SSAO Activity (%) Plasma 2 hours / SSAO Activity (%) Plasma 24 hours: mean ± SEM, n = 6
Procedure: The SSAO activity in rat plasma and liver tissues are measured using the MAO-Glo™ assay kit from Promega (V1402). The residual SSAO activity in rats after compound treatment is estimated by measuring the total amine oxidase activity in plasma or liver lysates that are insensitive to the presence of the MAO inhibitor Clogyline and Pargyline. Rats are administered the compound of Example 1 at the doses of 15, 3, 0.6, 0.12, 0.025, 0.005 mg/kg. The control group is administered with the same volume (2 ml/kg) of the dosing vehicle (hydroxyethyl cellulose 1% w/v, 0.25% Tween 80). Plasma and liver at 2 or 24 hrs post compound treatment are harvested and stored at −78° C. until analysis. Tissue lysates are prepared by homogenization in a lysis buffer (20 mM HEPES, pH 7.4, 150 mM NaCl, 1 mM EDTA, 1 mM EGTA, 1% Triton X-100 and 1× Roche Complete protease inhibitor tablet). Tissue particles are removed by centrifugation at 12,000 rpm at 4° C. for 30 min. 40 μl of plasma or liver lysates is incubated with Clogyline (10 μM) and Pargyline (10 μM) for 20 min. at room temperature before the addition of the luminogenic substrate (50 μM) for 60 min. The product generated is quantified according to the manufacture's procedure. The fraction of activity that is insensitive to the presence of the MAO inhibitors is used as the surrogate for the residual SSAO activity. The compound of Example 1 is evaluated in the protocol essentially as described above administered at various doses.

recombinant hSSAO = molecular target: T1, recombinant hSSAO (Homo sapiens, UniProt Q16853); assay: SSAO/VAP-1 in vitro amine oxidase activity, MAO-Glo assay; type: biochemical; conditions: mean±standard deviation, n=5; substrate 10 μM, pH 7.4; read-out: hSSAO inhibition IC50
T1 sequence (Q16853 1-763): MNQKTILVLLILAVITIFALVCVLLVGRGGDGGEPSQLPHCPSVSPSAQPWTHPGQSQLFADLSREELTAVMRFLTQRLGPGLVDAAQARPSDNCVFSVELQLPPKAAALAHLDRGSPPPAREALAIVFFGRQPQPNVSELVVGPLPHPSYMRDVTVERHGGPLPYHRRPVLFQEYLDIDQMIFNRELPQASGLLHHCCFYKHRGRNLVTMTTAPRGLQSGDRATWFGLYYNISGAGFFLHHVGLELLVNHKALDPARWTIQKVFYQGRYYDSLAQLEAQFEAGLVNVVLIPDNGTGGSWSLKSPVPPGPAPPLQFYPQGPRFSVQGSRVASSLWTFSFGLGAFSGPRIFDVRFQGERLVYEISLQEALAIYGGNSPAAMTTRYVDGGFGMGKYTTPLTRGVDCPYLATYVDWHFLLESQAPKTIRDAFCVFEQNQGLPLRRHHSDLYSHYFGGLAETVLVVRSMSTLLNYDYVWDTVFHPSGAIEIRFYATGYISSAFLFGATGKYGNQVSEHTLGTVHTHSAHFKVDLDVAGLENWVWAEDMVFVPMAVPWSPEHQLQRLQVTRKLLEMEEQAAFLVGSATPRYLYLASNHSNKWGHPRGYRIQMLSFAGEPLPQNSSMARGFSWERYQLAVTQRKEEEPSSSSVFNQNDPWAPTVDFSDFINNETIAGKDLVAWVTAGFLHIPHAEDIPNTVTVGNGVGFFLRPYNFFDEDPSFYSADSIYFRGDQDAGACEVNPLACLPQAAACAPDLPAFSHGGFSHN
Procedure: Amine oxidase activity of recombinant hSSAO, hMAOa, and hMAOb isoforms are measured using the MAO-Glo™ assay kit from Promega (V1402). Test compounds (with DMSO as vehicle, 0.5% v/v for SSAO) and the enzyme are incubated for 10 mins at room temperature before the addition of the luminogenic substrate. The substrate concentration is 10 μM for human recombinant SSAO. The assays are conducted in a pH 7.4 buffer (50 mM HEPES, 120 mM NaCl, 5 mM KCl, 2 mM CaCl2, 1.4 mM MgCl2, 0.001% Tween-20) in a well-plate. Oxidation of the substrate is conducted for 2 hrs before the addition of detecting reagent according the manufacture's protocol. The IC50 value of the tested compounds is calculated by fitting the dose response curve using a 4-parameter non-linear regression routine.

IC50 (recombinant hSSAO): 19.4 ± 5.68 nM
Structure (SMILES): CN1CCC2(CCN(c3ncc(OC/C(=C/F)CN)cn3)CC2)C1=O.Cl.Cl [Example 1, 8-[5-[(E)-2-(Aminomethyl)-3-fluoro-allyloxy]pyrimidin-2-yl]-2-methyl-2,8-diazaspiro[4.5]decan-1-one Dihydrochloride]
SSAO Activity (%) Liver 24 hours (SSAO; dose 0.005 mg/kg): 79 ± 13%
SSAO Activity (%) Plasma 2 hours (SSAO; dose 0.005 mg/kg): 76 ± 3%
SSAO Activity (%) Plasma 24 hours (SSAO; dose 0.005 mg/kg): 81 ± 4%
SSAO Activity (%) Liver 24 hours (SSAO; dose 0.025 mg/kg): 59 ± 14%
SSAO Activity (%) Plasma 2 hours (SSAO; dose 0.025 mg/kg): 35 ± 4%
SSAO Activity (%) Plasma 24 hours (SSAO; dose 0.025 mg/kg): 67 ± 10%
SSAO Activity (%) Liver 24 hours (SSAO; dose 0.12 mg/kg): 28 ± 5%
SSAO Activity (%) Plasma 2 hours (SSAO; dose 0.12 mg/kg): 17 ± 1%
SSAO Activity (%) Plasma 24 hours (SSAO; dose 0.12 mg/kg): 39 ± 4%
SSAO Activity (%) Liver 24 hours (SSAO; dose 0.6 mg/kg): 24 ± 6%
SSAO Activity (%) Plasma 2 hours (SSAO; dose 0.6 mg/kg): 13.4 ± 2.4%
SSAO Activity (%) Plasma 24 hours (SSAO; dose 0.6 mg/kg): 31 ± 3%
SSAO Activity (%) Liver 24 hours (SSAO; dose 3 mg/kg): 6 ± 4%
SSAO Activity (%) Plasma 2 hours (SSAO; dose 3 mg/kg): 5.9 ± 1.6%
SSAO Activity (%) Plasma 24 hours (SSAO; dose 3 mg/kg): 19 ± 2%
SSAO Activity (%) Liver 24 hours (SSAO; dose 15 mg/kg): −0.63 ± 1.1%
SSAO Activity (%) Plasma 2 hours (SSAO; dose 15 mg/kg): 3.1 ± 0.9%
SSAO Activity (%) Plasma 24 hours (SSAO; dose 15 mg/kg): 14 ± 1%
inhibition of SSAO activity in rat plasma and liver tissue (in words) (SSAO; doses 0.005 to 15 mg/kg): dose-dependently inhibits SSAO activity
